Experimental data as given in ChEMBL document CHEMBL5500345, “Discovery of a novel homoisoflavonoid derivative 5g for anti-osteoclastic bone loss via targeting FGFR1” (Eur J Med Chem, 2024).
Active and inactive are the calls of the source. The calls are words filed in the database; no cut-off is given here.

Experiments:
BMDM [1] = experiment: Anti-osteoclastogenic activity in C57/BL6 mouse BMDM cells assessed as inhibition of RANKL-induced osteoclast differentiation at 5 uM incubated for 4 days in presence of M-CSF by TRAP staining based microscopic analysis relative to control; format: functional; settings: 96 h, time 4 day
BMDM [2] = experiment: Anti-osteoclastogenic activity in C57/BL6 mouse BMDM cells assessed as inhibition of RANKL-induced osteoclast differentiation at 10 uM incubated for 4 days in presence of M-CSF by TRAP staining based microscopic analysis relative to control; format: functional; settings: 96 h, time 4 day
BMDM [3] = experiment: Anti-osteoclastogenic activity in C57/BL6 mouse BMDM cells assessed as inhibition of RANKL-induced osteoclast differentiation by measuring number of TRAP-positive cells incubated for 4 days in presence of M-CSF by TRAP staining based microscopic analysis; format: functional, cell-based; settings: 96 h
BMDM [4] = experiment: Cytotoxicity against C57/BL6 mouse BMDM cells at < 20 uM incubated for 48 hrs by EZ-Cytox cell viability assay; format: toxicity, cell-based
BMDM [5] = experiment: Anti-osteoclastogenic activity in C57/BL6 mouse BMDM cells assessed as inhibition of RANKL-induced F-actin belt formation incubated for 6 days by F-actin ring assay; format: functional, cell-based; settings: time 6.0 day
BMDM [6] = experiment: Anti-osteoclastogenic activity in C57/BL6 mouse BMDM cells assessed as inhibition of RANKL-induced bone resorption number incubated for 6 days by fluorescein amine-labeled calcium phosphate based fluorescence spectramax analysis; format: functional, cell-based; settings: time 6.0 day
BMDM [7] = experiment: Anti-osteoclastogenic activity in C57/BL6 mouse BMDM cells assessed as inhibition of RANKL-induced bone resorption pit incubated for 6 days by fluorescein amine-labeled calcium phosphate based fluorescence spectramax analysis; format: functional, cell-based; settings: time 6.0 day
BMDM [8] = experiment: Anti-osteoclastogenic activity in C57/BL6 mouse BMDM cells assessed as inhibition of RANKL-induced osteoclast formation at 10 uM incubated for 4 days in presence of M-CSF by TRAP staining based microscopic analysis; format: functional, cell-based; settings: time 4.0 day
[9] = Cytotoxicity against BMP2-induced mouse Pre-Osteoblast cells at < 20 uM incubated for 48 hrs by EZ-Cytox cell viability assay; format: toxicity, cell-based
Pre-Osteoblast [10] = experiment: Induction of osteogenesis in mouse Pre-Osteoblast cells assessed as increase in ALP expression at < 20 uM incubated for 9 days by BCIP/NBT staining based analysis; format: functional, cell-based; settings: time 9.0 day
Pre-Osteoblast [11] = experiment: Induction of osteogenesis in mouse Pre-Osteoblast cells assessed as effect on ALP mRNA expression by qRT-PCR analysis; format: functional, cell-based
Pre-Osteoblast [12] = experiment: Induction of osteogenesis in mouse Pre-Osteoblast cells assessed as effect on OSX mRNA expression by qRT-PCR analysis; format: functional, cell-based
Pre-Osteoblast [13] = experiment: Induction of osteogenesis in mouse Pre-Osteoblast cells assessed as effect on RUNX2 mRNA expression by qRT-PCR analysis; format: functional, cell-based
BMDM [14] = experiment: Anti-osteoclastogenic activity in M-CSF/RANKL-induced C57/BL6 mouse BMDM cells assessed as downregulation of NFATc1 mRNA expression at 10 uM incubated upto 3 days by qRT-PCR analysis; format: functional, cell-based; settings: time <= 3.0 day
BMDM [15] = experiment: Anti-osteoclastogenic activity in M-CSF/RANKL-induced C57/BL6 mouse BMDM cells assessed as downregulation of ACP5 mRNA expression at 10 uM incubated upto 3 days by qRT-PCR analysis; format: functional, cell-based; settings: time <= 3.0 day
BMDM [16] = experiment: Anti-osteoclastogenic activity in M-CSF/RANKL-induced C57/BL6 mouse BMDM cells assessed as downregulation of Dc-stamp mRNA expression at 10 uM incubated upto 3 days by qRT-PCR analysis; format: functional, cell-based; settings: time <= 3.0 day
BMDM [17] = experiment: Anti-osteoclastogenic activity in M-CSF/RANKL-induced C57/BL6 mouse BMDM cells assessed as downregulation of ATP6V0D2 mRNA expression at 10 uM incubated upto 3 days by qRT-PCR analysis; format: functional, cell-based; settings: time <= 3.0 day
BMDM [18] = experiment: Anti-osteoclastogenic activity in M-CSF/RANKL-induced C57/BL6 mouse BMDM cells assessed as downregulation of MMP9 mRNA expression at 10 uM incubated upto 3 days by qRT-PCR analysis; format: functional, cell-based; settings: time <= 3.0 day
BMDM [19] = experiment: Anti-osteoclastogenic activity in M-CSF/RANKL-induced C57/BL6 mouse BMDM cells assessed as downregulation of CTSK mRNA expression at 10 uM incubated upto 3 days by qRT-PCR analysis; format: functional, cell-based; settings: time <= 3.0 day
BMDM [20] = experiment: Anti-osteoclastogenic activity in M-CSF/RANKL-induced C57/BL6 mouse BMDM cells assessed as downregulation of c-FOS mRNA expression at 10 uM incubated upto 3 days by qRT-PCR analysis; format: functional, cell-based; settings: time <= 3.0 day
BMDM [21] = experiment: Anti-osteoclastogenic activity in M-CSF/RANKL-induced C57/BL6 mouse BMDM cells assessed as downregulation of CTSK protein expression at 10 uM incubated upto 3 days by Western blotting analysis; format: functional, cell-based; settings: time <= 3.0 day
[22] = Toxicity in OVX-induced osteoporosis C57BL/6 mouse model assessed as change in body weight at 30 mg/kg,po administrated twice daily for 4 weeks; format: organism-based; settings: in vivo, 672 h
Mus musculus [23] = experiment: Anti-osteoporosis activity in OVX-induced osteoporosis C57BL/6 mouse model assessed as prevention of bone loss in femur at 15 mg/kg,po administrated twice daily for 4 weeks by micro-CT scanning analysis; format: functional, organism-based
Mus musculus [24] = experiment: Anti-osteoporosis activity in OVX-induced osteoporosis C57BL/6 mouse model assessed as increase in bone volume in femur at 15 mg/kg,po administrated twice daily for 4 weeks by micro-CT scanning analysis; format: functional, organism-based
Mus musculus [25] = experiment: Anti-osteoporosis activity in OVX-induced osteoporosis C57BL/6 mouse model assessed as increase in bone mineral density in femur at 15 mg/kg,po administrated twice daily for 4 weeks by micro-CT scanning analysis; format: functional, organism-based
Mus musculus [26] = experiment: Anti-osteoporosis activity in OVX-induced osteoporosis C57BL/6 mouse model assessed as prevention of bone loss in femur at 30 mg/kg,po administrated twice daily for 4 weeks by micro-CT scanning analysis; format: functional, organism-based
Mus musculus [27] = experiment: Anti-osteoporosis activity in OVX-induced osteoporosis C57BL/6 mouse model assessed as increase in bone volume in femur at 30 mg/kg,po administrated twice daily for 4 weeks by micro-CT scanning analysis; format: functional, organism-based
Mus musculus [28] = experiment: Anti-osteoporosis activity in OVX-induced osteoporosis C57BL/6 mouse model assessed as increase in bone mineral density in femur at 30 mg/kg,po administrated twice daily for 4 weeks by micro-CT scanning analysis; format: functional, organism-based
BMDM [29] = experiment: Anti-osteoclastogenic activity in M-CSF/RANKL-induced C57/BL6 mouse BMDM cells assessed as downregulation of FGFR1 expression at 10 uM incubated upto 3 days by immunoblotting analysis; format: functional, cell-based; settings: time <= 3.0 day
BMDM [30] = experiment: Anti-osteoclastogenic activity in M-CSF/RANKL-induced C57/BL6 mouse BMDM cells assessed as downregulation of ERK1 expression at 10 uM incubated upto 3 days by immunoblotting analysis; format: functional, cell-based; settings: time <= 3.0 day
BMDM [31] = experiment: Anti-osteoclastogenic activity in M-CSF/RANKL-induced C57/BL6 mouse BMDM cells assessed as downregulation of ERK2 expression at 10 uM incubated upto 3 days by immunoblotting analysis; format: functional, cell-based; settings: time <= 3.0 day
BMDM [32] = experiment: Anti-osteoclastogenic activity in M-CSF/RANKL-induced C57/BL6 mouse BMDM cells assessed as downregulation of IkappaBalpha expression at 10 uM incubated upto 3 days by immunoblotting analysis; format: functional, cell-based; settings: time <= 3.0 day
BMDM [33] = experiment: Anti-osteoclastogenic activity in M-CSF/RANKL-induced C57/BL6 mouse BMDM cells assessed as downregulation of NF-kappaB expression at 10 uM incubated upto 3 days by immunoblotting analysis; format: functional, cell-based; settings: time <= 3.0 day

CCCCOc1ccccc1Cc1c(-c2ccccc2)oc2ccccc2c1=O
inhibition at 5 µM (BMDM [1]): 19%
inhibition at 10 µM (BMDM [2]): 44.7%

O=c1c(Cc2ccccc2)c(-c2ccccc2)oc2ccccc12
inhibition at 5 µM (BMDM [1]): 22.6%
inhibition at 10 µM (BMDM [2]): 30.6%

O=c1c(Cc2ccccc2O)c(-c2ccc(Cl)cc2)oc2ccccc12
inhibition at 5 µM (BMDM [1]): 33%
inhibition at 10 µM (BMDM [2]): 36.7%

Cc1ccc(O)c(Cc2c(-c3ccccc3)oc3ccccc3c2=O)c1
inhibition at 5 µM (BMDM [1]): 21.5%
inhibition at 10 µM (BMDM [2]): 32.5%

Cc1ccc(-c2oc3ccc(C)cc3c(=O)c2Cc2cc(C)ccc2O)cc1
inhibition at 5 µM (BMDM [1]): 22.3%
inhibition at 10 µM (BMDM [2]): 23.8%

O=c1c(Cc2cc(-c3ccccc3)ccc2O)c(-c2ccccc2)oc2ccccc12
inhibition at 5 µM (BMDM [1]): 25.6%
inhibition at 10 µM (BMDM [2]): 23.7%

O=c1c(Cc2ccccc2O)c(-c2ccc(-c3ccccc3)cc2)oc2ccccc12
inhibition at 5 µM (BMDM [1]): 37.9%
inhibition at 10 µM (BMDM [2]): 69.3%

COc1ccc(-c2oc3ccccc3c(=O)c2Cc2ccccc2O)cc1
inhibition at 5 µM (BMDM [1]): 56.4%
inhibition at 10 µM (BMDM [2]): 79%
IC50 (BMDM [3]): 2.39 µM
Activity (BMDM [4]): Non-Toxic
Activity (BMDM [5]): Dose-Dependent Effect
Activity (BMDM [6]): Dose-Dependent Effect
Activity (BMDM [7]): Dose-Dependent Effect
Activity (BMDM [8]): Active
Activity [9]: Non-Toxic
Activity (Pre-Osteoblast [10]): inactive
Activity (Pre-Osteoblast [11]): inactive
Activity (Pre-Osteoblast [12]): inactive
Activity (Pre-Osteoblast [13]): inactive
Activity (BMDM [14]): Active
Activity (BMDM [15]): Active
Activity (BMDM [16]): Active
Activity (BMDM [17]): Active
Activity (BMDM [18]): Active
Activity (BMDM [19]): Active
Activity (BMDM [20]): Active
Activity (BMDM [21]): Active
Activity [22]: Non-Toxic
Activity (Mus musculus [23]): Active
Activity (Mus musculus [24]): Active
Activity (Mus musculus [25]): Active
Activity (Mus musculus [26]): Active
Activity (Mus musculus [27]): Active
Activity (Mus musculus [28]): Active
Activity (BMDM [29]): Active
Activity (BMDM [30]): Active
Activity (BMDM [31]): Active
Activity (BMDM [32]): Active
Activity (BMDM [33]): Active

COc1cc(Oc2ccccc2Cc2c(-c3ccccc3)oc3ccccc3c2=O)cc(OC)c1OC
inhibition at 5 µM (BMDM [1]): 22.7%
inhibition at 10 µM (BMDM [2]): 40.3%

Cc1ccc(-c2oc3ccccc3c(=O)c2Cc2ccccc2O)cc1
inhibition at 5 µM (BMDM [1]): 34.4%
inhibition at 10 µM (BMDM [2]): 37.8%

O=c1c(Cc2cccc(F)c2)c(-c2ccccc2)oc2ccccc12
inhibition at 5 µM (BMDM [1]): 22%
inhibition at 10 µM (BMDM [2]): 36.3%

O=c1c(Cc2ccccc2O)coc2ccccc12
inhibition at 5 µM (BMDM [1]): 12.8%
inhibition at 10 µM (BMDM [2]): 46.7%

O=c1c(Cc2cc(F)ccc2O)c(-c2ccccc2)oc2ccc(F)cc12
inhibition at 5 µM (BMDM [1]): 40%
inhibition at 10 µM (BMDM [2]): 37.6%

O=c1c(Cc2cc(Br)ccc2O)c(-c2ccccc2)oc2ccc(Br)cc12
inhibition at 5 µM (BMDM [1]): -8.26%
inhibition at 10 µM (BMDM [2]): -4.4%

Cc1ccc(S(=O)(=O)Oc2ccccc2Cc2c(-c3ccccc3)oc3ccccc3c2=O)cc1
inhibition at 5 µM (BMDM [1]): 28.9%
inhibition at 10 µM (BMDM [2]): 68.1%

O=c1c(Cc2ccccc2O)c(-c2ccccc2)oc2ccccc12
inhibition at 5 µM (BMDM [1]): 31.5%
inhibition at 10 µM (BMDM [2]): 60.4%

O=c1c(Cc2cc(Cl)cc(Cl)c2O)c(-c2ccccc2)oc2ccccc12
inhibition at 5 µM (BMDM [1]): 2.94%
inhibition at 10 µM (BMDM [2]): 14.7%

O=c1cc(-c2ccccc2)oc2ccccc12 [FLAVONE]
inhibition at 5 µM (BMDM [1]): 7.11%
inhibition at 10 µM (BMDM [2]): 35.4%

COc1ccc(O)c(Cc2c(-c3ccccc3)oc3ccc(OC)cc3c2=O)c1
inhibition at 5 µM (BMDM [1]): 17.6%
inhibition at 10 µM (BMDM [2]): 16.8%

CCOc1cccc(Cc2c(-c3ccccc3)oc3ccccc3c2=O)c1O
inhibition at 5 µM (BMDM [1]): 1.08%
inhibition at 10 µM (BMDM [2]): 25%

O=c1c(Cc2ccccc2Oc2ccc(O)cc2)c(-c2ccccc2)oc2ccccc12
inhibition at 5 µM (BMDM [1]): 29.4%
inhibition at 10 µM (BMDM [2]): 55.3%

COc1ccc(O)c(Cc2c(-c3ccccc3)oc3ccccc3c2=O)c1
inhibition at 5 µM (BMDM [1]): 36.5%
inhibition at 10 µM (BMDM [2]): 38.2%

CC(C)(C)c1ccc(Oc2ccccc2Cc2c(-c3ccccc3)oc3ccccc3c2=O)cc1
inhibition at 5 µM (BMDM [1]): 11.1%
inhibition at 10 µM (BMDM [2]): 12%

O=c1c(Cc2cc(Br)ccc2O)c(-c2ccccc2)oc2ccccc12
inhibition at 5 µM (BMDM [1]): 22.7%
inhibition at 10 µM (BMDM [2]): 54.5%

CS(=O)(=O)c1ccc(Oc2ccccc2Cc2c(-c3ccccc3)oc3ccccc3c2=O)cc1
inhibition at 5 µM (BMDM [1]): 23.2%
inhibition at 10 µM (BMDM [2]): 51.8%
